This is an account of results in patent US10472347B2, “Aminopyrazine compounds with A2A antagonist properties” (Merck Sharp & Dohme Corp., priority 2014, dated 2019).

The target of the assay is T1, human A2a receptor (Homo sapiens, UniProt P29274).
T1 construct: purchased Perkin-Elmer RBHA2AM400UA; host or cells: HEK293 cells (membranes)
Put plainly: A2a competition binding assay, Scintillation Proximity technology. As to conditions: membranes from HEK293 cells expressing human A2a receptor; for Ki: Ki by Cheng-Prusoff equation. A digest of the protocol:
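Membranes from HEK293 cells expressing human A2a, adenosine deaminase-treated, incubated 1 h at room temperature with compound (3000 to 0.15 nM) and 0.5 nM tritiated pyrazolotriazolopyrimidine radioligand on WGA SPA beads in Ca/Mg-free PBS + 10 mM MgCl2. Non-specific binding with 1 μM CGS15943; Ki by Cheng-Prusoff.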
For orientation: SPA uses beads or plates that emit light when radiolabelled molecules are held near them.

T1 sequence (P29274 whole entry): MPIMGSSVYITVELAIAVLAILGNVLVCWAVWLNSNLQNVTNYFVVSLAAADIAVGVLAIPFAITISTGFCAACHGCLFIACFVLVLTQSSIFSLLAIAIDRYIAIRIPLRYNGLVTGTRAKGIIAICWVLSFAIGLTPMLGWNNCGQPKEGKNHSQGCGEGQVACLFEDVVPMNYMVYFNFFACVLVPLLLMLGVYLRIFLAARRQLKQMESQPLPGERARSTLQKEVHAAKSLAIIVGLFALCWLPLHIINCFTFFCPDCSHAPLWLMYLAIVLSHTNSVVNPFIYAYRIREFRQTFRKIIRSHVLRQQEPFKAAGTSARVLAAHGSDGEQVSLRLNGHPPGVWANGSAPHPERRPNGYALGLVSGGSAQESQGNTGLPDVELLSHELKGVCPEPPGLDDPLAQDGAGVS

One may read the Ki as the dissociation constant of the complex between target and ligand, obtained from inhibition or displacement. Low readings indicate a stronger hold on the target, high ones a looser hold on the target. In the case of `Cc1nc(C(=O)N[C@H]2CCc3cccnc32)c(N)nc1-c1ncco1` [Ex-7B, (S)-3-amino-N-(6,7-dihydro-5H-cyclopenta[b]pyridin-7-yl)-6-methyl-5-(1,3-oxazol-2-yl)pyrazine-2-carboxamide], the Ki is 0.387 nM.

`COc1ccnc(CNC(=O)c2nc(C)c(-c3ncco3)nc2N)n1` [Ex-110, 3-amino-N-[(4-methoxypyrimidin-2-yl)methyl]-6-methyl-5-(1,3-oxazol-2-yl)pyrazine-2-carboxamide] returned an inhibition constant (Ki) of 1.32 nM.

`Cc1ccn2cc(CNC(=O)c3nc(C)c(-c4ncco4)nc3N)nc2c1` [Ex-111, 3-amino-6-methyl-N-[(7-methylimidazo[1,2-a]pyridin-2-yl)methyl]-5-(1,3-oxazol-2-yl)pyrazine-2-carboxamide] had a Ki of 82.2 nM.

Turning to `Cc1nc(C(=O)NCc2cc(Cl)ccn2)c(N)nc1-c1ncco1` [Ex-45, 3-amino-N-[(4-chloropyridin-2-yl)methyl]-6-methyl-5-(1,3-oxazol-2-yl)pyrazine-2-carboxamide], the Ki turned out to be 0.735 nM.

Regarding `Cc1nc(C(=O)NCc2nc(C)c(C)n2C)c(N)nc1-c1ncco1` [Ex-37, 3-amino-6-methyl-5-(1,3-oxazol-2-yl)-N-[(1,4,5-trimethyl-1H-imidazol-2-yl)methyl]pyrazine-2-carboxamide], affinity was put at a Ki of 7.77 nM.

The compound `Cc1nc(C(=O)NC2Cc3ccccc3C2)c(N)nc1-c1ncco1` [Ex-235, 3-amino-N-(2,3-dihydro-1H-inden-2-yl)-6-methyl-5-(1,3-oxazol-2-yl)pyrazine-2-carboxamide] registered a Ki of 0.243 nM. This Ki is about 32-fold lower than that of the compound before.

For `Cc1nc(C(=O)N[C@@H]2CCc3cccnc32)c(N)nc1-c1ncco1` [Ex-7A, (R)-3-amino-N-(6,7-dihydro-5H-cyclopenta[b]pyridin-7-yl)-6-methyl-5-(1,3-oxazol-2-yl)pyrazine-2-carboxamide], the affinity corresponds to a Ki of 5.18 nM. This Ki lies about 21-fold higher than the previous one.

Consider `COc1ccc2c(c1)CCC2NC(=O)c1nc(C)c(-c2ncco2)nc1N` (single isomer, unassigned) [Ex-231A, 3-amino-N-(5-methoxy-2,3-dihydro-1H-inden-1-yl)-6-methyl-5-(1,3-oxazol-2-yl)pyrazine-2-carrboxamide], for which the Ki came to 29.2 nM.

`COCc1cccc(CNC(=O)c2nc(C)c(-c3ncco3)nc2N)n1` [Ex-122, 3-amino-N-{[6-(methoxymethyl)pyridin-2-yl]methyl}-6-methyl-5-(1,3-oxazol-2-yl)pyrazine-2-carboxamide] showed an inhibition constant Ki of 2.91 nM.

`Nc1nc(-n2nccn2)c(Cl)nc1C(=O)NCCc1ccccc1Br` [Ex-289, 3-amino-N-[2-(2-bromophenyl)ethyl]-6-chloro-5-(2H-1,2,3-triazol-2-yl)pyrazine-2-carboxamide] returned a Ki of 34.8 nM.

As for `Cc1nc(C(=O)NCc2ncnn2C(C)C)c(N)nc1-c1ncco1` [Ex-188, 3-amino-6-methyl-N-{[1-(1-methylethyl)-1H-1,2,4-triazol-5-yl]methyl}-5-(1,3-oxazol-2-yl)pyrazine-2-carboxamide], the affinity corresponds to a Ki of 0.29 nM.

Compound `Cc1cccc(Cl)c1CNC(=O)c1nc(C)c(-c2cnco2)nc1N` [Ex-256, 3-amino-N-(2-chloro-6-methylbenzyl)-6-methyl-5-(1,3-oxazol-5-yl)pyrazine-2-carboxamide] yielded a Ki of 0.196 nM.

`Cc1nc(C(=O)NCc2cncnc2)c(N)nc1-c1ncco1` [Ex-69, 3-amino-6-methyl-5-(1,3-oxazol-2-yl)-N-(pyrimidin-5-ylmethyl)pyrazine-2-carboxamide] registered a Ki of 56.5 nM.

`Cc1cnn(-c2nc(N)c(C(=O)NCc3ncccc3C(F)(F)F)nc2Cl)c1` [Ex-343, 3-amino-6-chloro-5-(4-methyl-1H-pyrazol-1-yl)-N-{[3-(trifluoromethyl)pyridin-2-yl]methyl}pyrazine-2-carboxamide] showed a Ki of 35.9 nM.

`Cc1nc(C(=O)N[C@@H]2c3ccccc3C[C@H]2O)c(N)nc1-c1ncco1` [Ex-159, 3-amino-N-[(1R,2R)-2-hydroxy-2,3-dihydro-1H-inden-1-yl]-6-methyl-5-(1,3-oxazol-2-yl)pyrazine-2-carboxamide] gave a Ki of 1.2 nM.

`Nc1nc(-n2nccn2)c(Cl)nc1C(=O)NCc1cnn2ccccc12` [Ex-295, 3-amino-6-chloro-N-(pyrazolo[1,5-a]pyridin-3-ylmethyl)-5-(2H-1,2,3-triazol-2-yl)pyrazine-2-carboxamide]: the Ki is 13.6 nM.

The compound `Cc1nc(C(=O)NCc2cccnc2)c(N)nc1-c1ncco1` [Ex-28, 3-amino-6-methyl-5-(1,3-oxazol-2-yl)-N-(pyridin-3-ylmethyl)pyrazine-2-carboxamide] gave an inhibitory constant (Ki) of 14.5 nM.

`Cc1nc(C(=O)NCc2ccc(F)cc2)c(N)nc1-c1ncco1` [Ex-32, 3-amino-N-(4-fluorobenzyl)-6-methyl-5-(1,3-oxazol-2-yl)pyrazine-2-carboxamide] showed an inhibitory constant (Ki) of 1.5 nM.

On to `Nc1nc(-n2nccn2)c(Cl)nc1C(=O)NCc1nc2ccccc2[nH]1` [Ex-302, 3-amino-N-(1H-benzimidazol-2-ylmethyl)-6-chloro-5-(2H-1,2,3-triazol-2-yl)pyrazine-2-carboxamide], for which the affinity corresponds to a Ki of 28.3 nM.

Broadly, the EC50 is the concentration at which the effect is half-maximal. Read a high EC50 as lower potency in that assay. Consider `Cc1cccnc1CNC(=O)c1nc(C)c(-c2ncco2)nc1N` [Ex-3, 3-amino-6-methyl-N-((3-methylpyridin-2-yl)methyl)-5-(oxazol-2-yl)pyrazine-2-carboxamide], for which the midpoint of the response (0.5 nM tritiated ligand), the EC50, lay at 3.4 nM.

Compound `Cc1nc(C(=O)NCc2ncc(F)cn2)c(N)nc1-c1ncco1` [Ex-109, 3-amino-N-[(5-fluoropyrimidin-2-yl)methyl]-6-methyl-5-(1,3-oxazol-2-yl)pyrazine-2-carboxamide] registered an inhibition constant Ki of 15 nM.

For `COc1ccc(C(C)(C)O)nc1CNC(=O)c1nc(C)c(-c2ncco2)nc1N` [Ex-237, 3-amino-N-{[6-(1-hydroxy-1-methylethyl)-3-methoxypyridin-2-yl]methyl}-6-methyl-5-(1,3-oxazol-2-yl)pyrazine-2-carboxamide], the affinity corresponds to a Ki of 1.77 nM. Compared with the last compound, the Ki is about 8.5-fold lower.

In the case of `CCn1ccnc1CNC(=O)c1nc(C)c(-c2ncco2)nc1N` [Ex-79, 3-amino-N-[(1-ethyl-1H-imidazol-2-yl)methyl]-6-methyl-5-(1,3-oxazol-2-yl)pyrazine-2-carboxamide], the affinity, expressed as Ki, was 0.34 nM.

Regarding `Cc1nc(C(=O)N[C@H]2c3ccccc3C[C@@H]2O)c(N)nc1-c1ncco1` [Ex-130, 3-amino-N-[(1S,2S)-2-hydroxy-2,3-dihydro-1H-inden-1-yl]-6-methyl-5-(1,3-oxazol-2-yl)pyrazine-2-carboxamide], the affinity, expressed as Ki, was 3.41 nM.

In turn, `Cc1nc(C(=O)NCc2cccc3c2ncn3CC2CC2)c(N)nc1-c1ncco1` [Ex-229, 3-amino-N-{[1-(cyclopropylmethyl)-1H-benzimidazol-4-yl]methyl}-6-methyl-5-(1,3-oxazol-2-yl)pyrazine-2-carboxamide] had an inhibition constant (Ki) of 0.358 nM.

On to `Cc1nc(C(=O)NCc2nccnc2C2CC2)c(N)nc1-c1ncco1` [Ex-184, 3-amino-N-[(3-cyclopropyl-pyrazin-2-yl)methyl]-6-methyl-5-(1,3-oxazol-2-yl)pyrazine-2-carboxamide], for which the affinity corresponds to a Ki of 0.208 nM.

As to `Nc1nc(-n2nccn2)c(Cl)nc1C(=O)NCc1nc2ccccc2o1` [Ex-299, 3-amino-N-(1,3-benzoxazol-2-ylmethyl)-6-chloro-5-(2H-1,2,3-triazol-2-yl)pyrazine-2-carboxamide], the affinity, expressed as Ki, was 33.6 nM.
